Laboratory results reported in PMC10389763, “BlaPSZ-1, a novel AmpC gene identified from a Pantoea isolate” (Frontiers in Microbiology, 2023).

Target: T1, PSZ-1 (AmpC β-lactamase)
T1 construct: gene blaPSZ-1; recombinant PSZ-1 from pCold I in E. coli BL21, His-tag removed with thrombin
Experiment: inhibition of nitrocefin hydrolysis, […] min preincubation, […]°C
Type: biochemical, Pantoea endophytica

Compound	IC50 [µM]
NC(=O)[C@@H]1CC[C@@H]2CN1C(=O)N2OS(=O)(=O)O [avibactam]	0.0555
C[C@]1(Cn2ccnn2)[C@H](C(=O)O)N2C(=O)C[C@H]2S1(=O)=O [tazobactam]	7.96
